Eleven molecules from ChEMBL document CHEMBL1201862, “PubChem BioAssay data set” (2004) can be followed below.

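In this assay, cells in 96-well plates receive the compound at five concentrations for 48 hours. Endpoints are linearly interpolated between the surrounding concentrations. Abbreviation: GI50, concentration required for 50% inhibition of growth.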 Active and inactive are the calls of the source. No stated cut-off is given here; in the data, active = GI50 up to about 1.1 µM and inactive = higher.

Test systems include A498; A549; DLD-1; HCC 2998; HCT-15; HOP-62; K562; LOX IMVI; MOLT-4; NCI-H226; NCI-H23; OVCAR-3; OVCAR-8; SF-268; SK-MEL-28; SN12C.
Assay in all cases: NCI tumour cell line growth inhibition, 48 h

`O=c1ccn([C@@H]2C[C@H](CO)C[S+]([O-])C2)c(=O)[nH]1` (stereo partly specified): the GI50 was > 100 µM (inactive) with A498; > 100 µM (inactive) in the assay with A549; > 100 µM (inactive) with DLD-1; > 100 µM (inactive) with HCC 2998; over 100 µM with HCT-15; > 100 µM (inactive) in the assay with HOP-62. Besides, the GI50 in the assay with K562, in the assay on LOX IMVI, in the assay on MOLT-4, in the assay on NCI-H226, in the assay with NCI-H23 and with OVCAR-3 was > 100 µM (inactive) in each case. In addition, the GI50 with OVCAR-8, with SF-268, in the assay on SK-MEL-28 and in the assay with SN12C was > 100 µM (inactive) in each case.
In the case of `COc1ccc(/C=C2\C(=O)N(NC(C)=O)c3ccccc32)cc1`, the GI50 in the assay on A498 is > 100 µM (inactive); in the assay on A549, 58.9 µM (inactive); with DLD-1, 68.4 µM (inactive); with HCC 2998, 71.6 µM (inactive); with HCT-15, 67.9 µM; in the assay on HOP-62 it was 97.3 µM (inactive). In addition, the GI50 in the assay with K562 was 28.6 µM (inactive); in the assay with LOX IMVI, > 100 µM (inactive); with MOLT-4, 40.9 µM (inactive); in the assay on NCI-H226 it was > 100 µM (inactive); in the assay on NCI-H23 it was > 100 µM (inactive); in the assay with OVCAR-3, 56.4 µM (inactive). In addition, the GI50 is 48.1 µM (inactive) in the assay on OVCAR-8, 80.4 µM (inactive) in the assay with SF-268, > 100 µM (inactive) in the assay on SK-MEL-28 and > 100 µM (inactive) with SN12C.
Consider `CN(CCCCN)c1ccc2c(=O)[nH][nH]c(=O)c2c1`, for which the GI50 with A498 is > 100 µM (inactive); in the assay on A549, > 100 µM (inactive); with DLD-1 it was > 100 µM (inactive); in the assay on HCC 2998, > 100 µM (inactive); in the assay on HCT-15, over 100 µM; in the assay with HOP-62, > 100 µM (inactive). The GI50 in the assay with K562 was > 100 µM (inactive); in the assay on LOX IMVI, > 100 µM (inactive); in the assay with MOLT-4, > 100 µM (inactive); with NCI-H226, > 100 µM (inactive); with NCI-H23, 2.24 µM (inactive); in the assay on OVCAR-3, > 100 µM (inactive). Moreover, the GI50 was > 10 µM (inactive) in the assay on OVCAR-8, 13 µM (inactive) in the assay on SF-268, > 100 µM (inactive) in the assay with SK-MEL-28 and > 100 µM (inactive) with SN12C.
With `COc1cc2c(cc1O)[C@@]1(Cc3ccc(OC)c(OC)c3)CCC(=O)N1CC2`, the GI50 in the assay with A498 is > 100 µM (inactive); in the assay with A549, > 100 µM (inactive); with DLD-1, > 100 µM (inactive); in the assay on HCC 2998 it was > 100 µM (inactive); in the assay on HCT-15, over 100 µM; in the assay on HOP-62 it was > 100 µM (inactive). The GI50 with K562 was > 100 µM (inactive); in the assay with LOX IMVI, > 100 µM (inactive); in the assay on MOLT-4 it was 52 µM (inactive); in the assay with NCI-H226, > 100 µM (inactive); in the assay with NCI-H23, > 100 µM (inactive); in the assay with OVCAR-3, > 100 µM (inactive). Further, the GI50 in the assay with OVCAR-8, with SF-268, in the assay with SK-MEL-28 and in the assay on SN12C was > 100 µM (inactive) each time.
Turning to `Cc1cc(C)c(C2[C@H]3C(=O)N(c4ccc(Cc5ccc(N6C(=O)[C@@H]7ON(c8ccccc8)C(c8c(C)cc(C)cc8C)[C@@H]7C6=O)cc5)cc4)C(=O)[C@H]3ON2c2ccccc2)c(C)c1` (stereo partly specified), the GI50 in the assay with A498 was > 100 µM (inactive); in the assay on A549, > 100 µM (inactive); in the assay with DLD-1, > 100 µM (inactive); in the assay on HCC 2998, > 100 µM (inactive); in the assay on HCT-15, over 100 µM; with HOP-62, > 100 µM (inactive). Besides, the GI50 with K562, in the assay with LOX IMVI, in the assay with MOLT-4, in the assay with NCI-H226, with NCI-H23 and in the assay with OVCAR-3 was > 100 µM (inactive) in each case. In addition, the GI50 in the assay with OVCAR-8, with SF-268, with SK-MEL-28 and with SN12C was > 100 µM (inactive) in each case.
`CC(C)(c1ccccc1)c1ccc(OC#N)cc1`: the GI50 in the assay on A498 was > 100 µM (inactive); with A549 it was 73.5 µM (inactive); in the assay with DLD-1 it was > 44.5 µM (inactive); in the assay with HCC 2998, > 77.6 µM (inactive); in the assay on HCT-15, 15.2 µM; with HOP-62, > 100 µM (inactive). The GI50 in the assay with K562 is 37.8 µM (inactive); in the assay on LOX IMVI it was > 41 µM (inactive); in the assay on MOLT-4 it was 35.2 µM (inactive); in the assay with NCI-H226, 51.5 µM (inactive); in the assay with NCI-H23, 68.9 µM (inactive); in the assay on OVCAR-3, > 100 µM (inactive). Besides, the GI50 was > 100 µM (inactive) in the assay with OVCAR-8, 42 µM (inactive) in the assay with SF-268, > 70.5 µM (inactive) in the assay with SK-MEL-28 and 60.5 µM (inactive) in the assay with SN12C.
As to `CC(C)Cc1cc(CCC(=O)Nc2ccccc2[N+](=O)[O-])nc(NC#N)n1`, the GI50 in the assay on A498 was > 100 µM (inactive); in the assay on A549, > 100 µM (inactive); in the assay on DLD-1 it was > 100 µM (inactive); in the assay on HCC 2998, > 100 µM (inactive); with HCT-15 it was over 100 µM; in the assay with HOP-62, > 100 µM (inactive). In addition, the GI50 in the assay on K562, with LOX IMVI, with MOLT-4, with NCI-H226, in the assay on NCI-H23 and with OVCAR-3 was > 100 µM (inactive) in each case. Moreover, the GI50 in the assay with OVCAR-8, in the assay with SF-268, in the assay on SK-MEL-28 and with SN12C was > 100 µM (inactive) throughout.
With `CCOC(=O)Oc1c(OC)cc(C(=O)NC2CCc3cc(OC)c(OC)c(OC)c3-c3ccc(SC)c(=O)cc32)cc1OC` (stereo unspecified), the GI50 with A498 is 0.223 µM (active); in the assay on A549, 0.428 µM (active); in the assay on DLD-1, 0.0723 µM (active); in the assay on HCC 2998, 0.0473 µM (active); in the assay with HCT-15, 0.445 µM; with HOP-62, 0.601 µM (active). In addition, the GI50 is < 0.007 µM (active) with K562; 0.0466 µM (active) in the assay on LOX IMVI; 0.157 µM (active) with MOLT-4; 0.0471 µM (active) with NCI-H226; 0.0439 µM (active) in the assay with NCI-H23; 0.0322 µM (active) with OVCAR-3. Further, the GI50 in the assay on OVCAR-8 is 0.092 µM (active); in the assay on SF-268, 0.0916 µM (active); with SK-MEL-28, 20.7 µM (inactive); with SN12C it was 0.0542 µM (active).
Regarding `COc1cc2c[n+](C)c3c4cc(OC)c(OC)cc4c(OCCCCCCCCOc4cc5c6cc(OC)c(OC)cc6c[n+](C)c5c5cc(OC)c(OC)cc45)cc3c2cc1OC`, the GI50 in the assay on A498 was > 100 µM (inactive); in the assay on A549, > 100 µM (inactive); in the assay on DLD-1, > 100 µM (inactive); in the assay on HCC 2998 it was > 100 µM (inactive); in the assay on HCT-15, over 100 µM; with HOP-62, > 100 µM (inactive). Besides, the GI50 is 8.71 µM (inactive) in the assay with K562; > 100 µM (inactive) in the assay with LOX IMVI; 31.6 µM (inactive) in the assay with MOLT-4; > 100 µM (inactive) in the assay with NCI-H226; > 100 µM (inactive) in the assay with NCI-H23; > 100 µM (inactive) in the assay on OVCAR-3. In addition, the GI50 in the assay on OVCAR-8, in the assay with SF-268, in the assay with SK-MEL-28 and with SN12C was > 100 µM (inactive) each time.
On to `O=C1c2ccccc2C(=O)c2c1cc(S(=O)(=O)O)c(O)c2O` [Alizarin Red S], for which the GI50 in the assay on A498 is > 100 µM (inactive); with A549, > 100 µM (inactive); in the assay on DLD-1 it was > 100 µM (inactive); with HCC 2998, > 100 µM (inactive); in the assay on HCT-15 it was over 100 µM; in the assay on HOP-62 it was > 100 µM (inactive). The GI50 in the assay on K562, with LOX IMVI, in the assay with MOLT-4, in the assay on NCI-H226, in the assay on NCI-H23 and with OVCAR-3 was > 100 µM (inactive) throughout. Moreover, the GI50 with OVCAR-8, in the assay with SF-268, with SK-MEL-28 and with SN12C was > 100 µM (inactive) each time.
In the case of `CN1C(=O)C(=O)c2cc3c(c4c2c1cc1ccccc14)OCO3` [CEPHARADIONE A], the GI50 in the assay on A498 was > 100 µM (inactive); in the assay on A549, 33.7 µM (inactive); in the assay with DLD-1, 31.2 µM (inactive); with HCC 2998, 49.1 µM (inactive); in the assay with HCT-15, 36.1 µM; in the assay on HOP-62, 41.2 µM (inactive). Besides, the GI50 in the assay on K562 is 27.2 µM (inactive); with LOX IMVI, 23 µM (inactive); with MOLT-4 it was 17.9 µM (inactive); in the assay with NCI-H226, 25.2 µM (inactive); in the assay with NCI-H23, 40.7 µM (inactive); in the assay with OVCAR-3, 62.1 µM (inactive). Besides, the GI50 in the assay on OVCAR-8 was 24.1 µM (inactive); in the assay with SF-268, 21.9 µM (inactive); in the assay on SK-MEL-28 it was 40.5 µM (inactive); in the assay with SN12C it was 37.7 µM (inactive).
